From PubChem BioAssay AID1259407 (Chemical Carcinogenesis Research Information System (CCRIS), 2018) come the findings set out here.

Active and inactive are the calls of the source. No rule for the calls is given here.

For the series, the system named is CCRIS mutagenicity, Ames/micronucleus/aberration tests. The experiment in a line: CCRIS mutagenicity studies.
Setting [1] is: Test System: AMES SALMONELLA TYPHIMURIUM, Strain/Indicator: TA100, Metabolic Activation: NONE, Method: STANDARD PLATE.

As for `O=C1NC(=O)C(c2ccccc2)(c2ccccc2)N1`, the mutagenic call reads like this: (End Point: IN VITRO CHROMOSOMAL ABERRATIONS, Test System: CHINESE HAMSTER OVARY CELLS, Metabolic Activation: NONE) “inactive; negative”; (End Point: IN VITRO CHROMOSOMAL ABERRATIONS, Test System: CHINESE HAMSTER OVARY CELLS, Metabolic Activation: RAT, LIVER, S-9, AROCLOR 1254) “inactive; negative”; (End Point: IN VIVO MICRONUCLEUS, Test System: BONE MARROW POLYCHROMATIC ERYTHROCYTES, Species: MOUSE, Strain/Sex: CD-1/MALE, FEMALE, Route: IP) “inactive; negative”; (End Point: IN VIVO MICRONUCLEUS, Test System: FETAL LIVER POLYCHROMATIC ERYTHROCYTES (MALES AND FEMALES), Species: MOUSE, Strain/Sex: FEMALE (PREGNANT), Route: IP) “inactive; negative”; (Test System: AMES SALMONELLA TYPHIMURIUM, Strain/Indicator: TA97, Metabolic Activation: NONE, Method: STANDARD PLATE) “inactive; negative”; (Test System: AMES SALMONELLA TYPHIMURIUM, Strain/Indicator: TA97, Metabolic Activation: RAT, LIVER, S-9, 3-METHYLCHOLANTHRENE, Method: PREINCUBATION (10, 20 OR 30 MIN)) “inactive; negative”. Moreover, the mutagenic call (Test System: AMES SALMONELLA TYPHIMURIUM, Strain/Indicator: TA97, Metabolic Activation: RAT, LIVER, S-9, AROCLOR 1254 (50 OR 100 UG), Method: STANDARD PLATE) is “inactive; negative”; the mutagenic call (Test System: AMES SALMONELLA TYPHIMURIUM, Strain/Indicator: TA97, Metabolic Activation: RAT, LIVER, S-9, AROCLOR 1254, Method: PREINCUBATION (10, 20 OR 30 MIN)) is “inactive; negative”; the mutagenic call (Test System: AMES SALMONELLA TYPHIMURIUM, Strain/Indicator: TA97, Metabolic Activation: RAT, LIVER, S-9, AROCLOR 1254, Method: STANDARD PLATE) is “inactive; negative”; the mutagenic call (Test System: AMES SALMONELLA TYPHIMURIUM, Strain/Indicator: TA97, Metabolic Activation: RAT, LIVER, S-9, PHENOBARBITONE, Method: PREINCUBATION (10, 20 OR 30 MIN)) is “inactive; negative”; the mutagenic call (Test System: AMES SALMONELLA TYPHIMURIUM, Strain/Indicator: TA98, Metabolic Activation: HAMSTER, LIVER, S-9, AROCLOR 1254 (10%), Method: PREINCUBATION) was “inactive; negative”; the mutagenic call (Test System: AMES SALMONELLA TYPHIMURIUM, Strain/Indicator: TA98, Metabolic Activation: NONE, Method: PREINCUBATION) was “inactive; negative”. Besides, the mutagenic call reads like this: (Test System: AMES SALMONELLA TYPHIMURIUM, Strain/Indicator: TA98, Metabolic Activation: NONE, Method: STANDARD PLATE) “inactive; negative”; (Test System: AMES SALMONELLA TYPHIMURIUM, Strain/Indicator: TA98, Metabolic Activation: RAT, LIVER, S-9, 3-METHYLCHOLANTHRENE, Method: STANDARD PLATE) “inactive; negative”; (Test System: AMES SALMONELLA TYPHIMURIUM, Strain/Indicator: TA98, Metabolic Activation: RAT, LIVER, S-9, AROCLOR 1254 (10%), Method: PREINCUBATION) “inactive; negative”; (Test System: AMES SALMONELLA TYPHIMURIUM, Strain/Indicator: TA98, Metabolic Activation: RAT, LIVER, S-9, AROCLOR 1254 (50 OR 100 UG), Method: STANDARD PLATE) “inactive; negative”; (Test System: AMES SALMONELLA TYPHIMURIUM, Strain/Indicator: TA98, Metabolic Activation: RAT, LIVER, S-9, AROCLOR 1254, Method: PREINCUBATION (10, 20 OR 30 MIN)) “inactive; negative”; (Test System: AMES SALMONELLA TYPHIMURIUM, Strain/Indicator: TA98, Metabolic Activation: RAT, LIVER, S-9, AROCLOR 1254, Method: STANDARD PLATE) “inactive; negative”. Moreover, the mutagenic call by setting is: (Test System: AMES SALMONELLA TYPHIMURIUM, Strain/Indicator: TA98, Metabolic Activation: RAT, LIVER, S-9, PHENOBARBITONE, Method: STANDARD PLATE) “inactive; negative”; (Test System: AMES SALMONELLA TYPHIMURIUM, Strain/Indicator: TA100, Metabolic Activation: HAMSTER, LIVER, S-9, AROCLOR 1254 (10%), Method: PREINCUBATION) “inactive; negative”; (Test System: AMES SALMONELLA TYPHIMURIUM, Strain/Indicator: TA100, Metabolic Activation: NONE, Method: PREINCUBATION) “inactive; negative”; under setting [1], “inactive; negative”; (Test System: AMES SALMONELLA TYPHIMURIUM, Strain/Indicator: TA100, Metabolic Activation: RAT, LIVER, S-9, AROCLOR 1254 (10%), Method: PREINCUBATION) “inactive; negative”; (Test System: AMES SALMONELLA TYPHIMURIUM, Strain/Indicator: TA100, Metabolic Activation: RAT, LIVER, S-9, AROCLOR 1254 (50 OR 100 UG), Method: STANDARD PLATE) “inactive; negative”. In addition, the mutagenic call (Test System: AMES SALMONELLA TYPHIMURIUM, Strain/Indicator: TA100, Metabolic Activation: RAT, LIVER, S-9, AROCLOR 1254, Method: STANDARD PLATE) is “inactive; negative”; the mutagenic call (Test System: AMES SALMONELLA TYPHIMURIUM, Strain/Indicator: TA1530, Metabolic Activation: NONE, Method: STANDARD PLATE) is “inactive; negative”; the mutagenic call (Test System: AMES SALMONELLA TYPHIMURIUM, Strain/Indicator: TA1530, Metabolic Activation: RAT, LIVER, S-9, AROCLOR 1254 (50 OR 100 UG), Method: STANDARD PLATE) was “inactive; negative”; the mutagenic call (Test System: AMES SALMONELLA TYPHIMURIUM, Strain/Indicator: TA1535, Metabolic Activation: HAMSTER, LIVER, S-9, AROCLOR 1254 (10%), Method: PREINCUBATION) is “inactive; negative”; the mutagenic call (Test System: AMES SALMONELLA TYPHIMURIUM, Strain/Indicator: TA1535, Metabolic Activation: NONE, Method: PREINCUBATION) is “inactive; negative”; the mutagenic call (Test System: AMES SALMONELLA TYPHIMURIUM, Strain/Indicator: TA1535, Metabolic Activation: RAT, LIVER, S-9, AROCLOR 1254 (10%), Method: PREINCUBATION) is “inactive; negative”. Further, the mutagenic call is “inactive; negative” (Test System: AMES SALMONELLA TYPHIMURIUM, Strain/Indicator: TA1537, Metabolic Activation: HAMSTER, LIVER, S-9, AROCLOR 1254 (10%), Method: PREINCUBATION); “inactive; negative” (Test System: AMES SALMONELLA TYPHIMURIUM, Strain/Indicator: TA1537, Metabolic Activation: NONE, Method: PREINCUBATION); “inactive; negative” (Test System: AMES SALMONELLA TYPHIMURIUM, Strain/Indicator: TA1537, Metabolic Activation: NONE, Method: STANDARD PLATE); “inactive; negative” (Test System: AMES SALMONELLA TYPHIMURIUM, Strain/Indicator: TA1537, Metabolic Activation: RAT, LIVER, S-9, AROCLOR 1254 (10%), Method: PREINCUBATION); “inactive; negative” (Test System: AMES SALMONELLA TYPHIMURIUM, Strain/Indicator: TA1537, Metabolic Activation: RAT, LIVER, S-9, AROCLOR 1254 (50 OR 100 UG), Method: STANDARD PLATE); “inactive; negative” (Test System: AMES SALMONELLA TYPHIMURIUM, Strain/Indicator: TA1538, Metabolic Activation: NONE, Method: STANDARD PLATE). For the same compound, the mutagenic call is “inactive; negative” (Test System: AMES SALMONELLA TYPHIMURIUM, Strain/Indicator: TA1538, Metabolic Activation: RAT, LIVER, S-9, 3-METHYLCHOLANTHRENE, Method: STANDARD PLATE); “inactive; negative” (Test System: AMES SALMONELLA TYPHIMURIUM, Strain/Indicator: TA1538, Metabolic Activation: RAT, LIVER, S-9, AROCLOR 1254 (50 OR 100 UG), Method: STANDARD PLATE); “inactive; negative” (Test System: AMES SALMONELLA TYPHIMURIUM, Strain/Indicator: TA1538, Metabolic Activation: RAT, LIVER, S-9, AROCLOR 1254, Method: PREINCUBATION (10, 20 OR 30 MIN)); “inactive; negative” (Test System: AMES SALMONELLA TYPHIMURIUM, Strain/Indicator: TA1538, Metabolic Activation: RAT, LIVER, S-9, AROCLOR 1254, Method: STANDARD PLATE); “inactive; negative” (Test System: AMES SALMONELLA TYPHIMURIUM, Strain/Indicator: TA1538, Metabolic Activation: RAT, LIVER, S-9, PHENOBARBITONE, Method: STANDARD PLATE); “inactive; negative” (Test System: CHINESE HAMSTER OVARY, Strain/Indicator: CHO-K1-BH4 (HGPRT)/6-THIOGUANINE, Metabolic Activation: NONE, Method: SUSPENSION/PLATE). The mutagenic call is, setting by setting: (Test System: CHINESE HAMSTER OVARY, Strain/Indicator: CHO-K1-BH4 (HGPRT)/6-THIOGUANINE, Metabolic Activation: S-9, Method: SUSPENSION/PLATE) “inactive; negative”; (Test System: MOUSE LYMPHOMA, Strain/Indicator: L5178Y (TK+/TK-), Metabolic Activation: NONE, Method: SUSPENSION/PLATE) “inactive; negative”; (Test System: MOUSE LYMPHOMA, Strain/Indicator: L5178Y (TK+/TK-), Metabolic Activation: RAT, LIVER, S-9, AROCLOR 1254, Method: SUSPENSION/PLATE) “inactive; negative”; (Test System: MOUSE LYMPHOMA, Strain/Indicator: L5178Y (TK+/TK-), Metabolic Activation: S-9, Method: SUSPENSION/PLATE) “inactive; negative”.
In the case of `O=[N+]([O-])c1[nH]cnc1-c1ccccc1`, the mutagenic call under setting [1] was “active; positive”.
